Data reported in patent publication US20020090352A1, “Compositions and methods for use in modulating immune system function” (priority 2000, published 2002).
Peptide text beside a SMILES is read from it. * marks the point of attachment. Cbz = O=C(OCc1ccccc1)*; CH2F = FC*

Columns and labels:
[1] = test system: immature LC (Langerhans cells); test: Apoptosis of immature LC, flow cytometry of PI stained nuclei (sub 2N particles) / annexin V; format: cell-based, human; conditions: for percentage of apoptotic (<2N) particles: Cmpd. II 1 μM, Cmpd. VIII 1 μM, Z-Vad 50 μM, TNFα 10 ng/ml, CD40L coculture
[2] = test system: immature LC (Langerhans cells); test: Survival of immature LC, viable cell count with trypan blue exclusion; conditions: 1000 nM tRA; Compound II 1000 nM, Z-Vad-fmk 50 nM

COC(=O)C[C@H](NC(=O)[C@H](C)NC(=O)[C@@H](NC(=O)OCc1ccccc1)C(C)C)C(=O)CF [Z-Vad-fmk, reference compound] (Cbz-Val-Ala-Asp(OMe)-CH2F)
percentage of apoptotic (<2N) particles ([1]; agent + Cmpd. I 1 μM): 9 ± 7% | percentage of apoptotic (<2N) particles ([1]; agent + Compound I 100 nM + SR11237 100 nM): 11 ± 4% | percentage of apoptotic (<2N) particles ([1]; agent + tRA 1 μM): 9 ± 4% | percentage of apoptotic (<2N) particles ([1]; agent alone (column 0)): ≦5% | inhibition of retinoid-induced apoptosis / cell death of immature LC ([1]; result in words): blocked | inhibition of tRA mortality [2]: > 80%
